Laboratory results published in ChEMBL document CHEMBL1201862, “PubChem BioAssay data set” (2004).
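A five-concentration, 48-hour dose response in 96-well plates underlies each endpoint, interpolated linearly between surrounding concentrations. The concentration for 50% growth inhibition is given as GI50.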 The source made the active and inactive calls. Cut-off read from the data, not from the text of the source: active = GI50 up to about 1.1 µM and inactive = higher.

Columns and labels:
Experiment in all cases: NCI anticancer screen, dose series, 48 h
CAKI-1 = tested on: CAKI-1
UACC-62 = tested on: UACC-62
RXF 393 = tested on: RXF 393
M14 = tested on: M14
HCC 2998 = tested on: HCC 2998
SF-295 = tested on: SF-295
SK-MEL-5 = tested on: SK-MEL-5
OVCAR-8 = tested on: OVCAR-8
NCI-H23 = tested on: NCI-H23
SK-MEL-2 = tested on: SK-MEL-2
SN12C = tested on: SN12C
A498 = tested on: A498
U-251 = tested on: U-251
SF-539 = tested on: SF-539
HCT-116 = tested on: HCT-116
NCI-H226 = tested on: NCI-H226
PC-3 = tested on: PC-3
KM12 = tested on: KM12
CCRF-CEM = tested on: CCRF-CEM
MDA-MB-231 = tested on: MDA-MB-231
SW-620 = tested on: SW-620
RPMI-8226 = tested on: RPMI-8226
HL-60 = tested on: HL-60
NCI/ADR-RES = tested on: NCI/ADR-RES
SK-OV-3 = tested on: SK-OV-3
OVCAR-5 = tested on: OVCAR-5
OVCAR-4 = tested on: OVCAR-4
Hs-578T = tested on: Hs-578T
SNB-19 = tested on: SNB-19
K562 = tested on: K562
HOP-62 = tested on: HOP-62
MCF7 = tested on: MCF7
MDA-MB-435 = tested on: MDA-MB-435
COLO 205 = tested on: COLO 205
NCI-H522 = tested on: NCI-H522
LOX IMVI = tested on: LOX IMVI
UACC-257 = tested on: UACC-257
786-0 = tested on: 786-0
BT-549 = tested on: BT-549
MDA-N = tested on: MDA-N
HT-29 = tested on: HT-29
Malme-3M = tested on: Malme-3M
A549 = tested on: A549
EKVX = tested on: EKVX
HOP-92 = tested on: HOP-92
SK-MEL-28 = tested on: SK-MEL-28
MOLT-4 = tested on: MOLT-4
SR = tested on: SR
ACHN = tested on: ACHN
NCI-H460 = tested on: NCI-H460
DU-145 = tested on: DU-145
TK-10 = tested on: TK-10
HCT-15 = tested on: HCT-15
T47D = tested on: T47D
SF-268 = tested on: SF-268
UO-31 = tested on: UO-31

CC(C)[N+]([O-])(CCCNc1c2ccccc2nc2cccc([N+](=O)[O-])c12)C(C)C
GI50 (CAKI-1): 492 nM (active)
GI50 (UACC-62): 148 nM (active)
GI50 (RXF 393): 172 nM (active)
GI50 (M14): 34.7 nM (active)
GI50 (HCC 2998): < 10 nM (active)
GI50 (SF-295): < 41.2 nM (active)
GI50 (SK-MEL-5): < 16.7 nM (active)
GI50 (OVCAR-8): < 45.8 nM (active)
GI50 (NCI-H23): < 20.6 nM (active)
GI50 (SK-MEL-2): 234 nM (active)
GI50 (SN12C): 55.1 nM (active)
GI50 (A498): < 45.2 nM (active)
GI50 (U-251): < 45.3 nM (active)
GI50 (SF-539): 47 nM (active)
GI50 (HCT-116): < 20.4 nM (active)
GI50 (NCI-H226): < 45.6 nM (active)
GI50 (PC-3): < 47.3 nM (active)
GI50 (KM12): 65 nM (active)
GI50 (CCRF-CEM): < 41.2 nM (active)
GI50 (MDA-MB-231): < 10 nM (active)
GI50 (SW-620): < 25.8 nM (active)
GI50 (RPMI-8226): < 17.9 nM (active)
GI50 (HL-60): < 42.8 nM (active)
GI50 (NCI/ADR-RES): 581 nM (active)
GI50 (SK-OV-3): 262 nM (active)
GI50 (OVCAR-5): < 39.5 nM (active)
GI50 (OVCAR-4): 153 nM (active)
GI50 (Hs-578T): < 48.1 nM (active)
GI50 (SNB-19): 72.6 nM (active)
GI50 (K562): < 35.5 nM (active)
GI50 (HOP-62): 52.5 nM (active)
GI50 (MCF7): < 27.2 nM (active)
GI50 (MDA-MB-435): < 32.5 nM (active)
GI50 (COLO 205): < 19 nM (active)
GI50 (NCI-H522): 29.4 nM (active)
GI50 (LOX IMVI): 61.9 nM (active)
GI50 (UACC-257): 64 nM (active)
GI50 (786-0): 46.7 nM (active)
GI50 (BT-549): < 39.5 nM (active)
GI50 (MDA-N): < 34.2 nM (active)
GI50 (HT-29): < 20.2 nM (active)
GI50 (Malme-3M): < 41 nM (active)
GI50 (A549): < 28.2 nM (active)
GI50 (EKVX): < 36.7 nM (active)
GI50 (HOP-92): < 35.5 nM (active)
GI50 (SK-MEL-28): < 10 nM (active)
GI50 (MOLT-4): < 18.1 nM (active)
GI50 (SR): 14.2 nM (active)
GI50 (ACHN): < 44.1 nM (active)
GI50 (NCI-H460): 60 nM (active)
GI50 (DU-145): < 26 nM (active)

Cn1ccc(C(=O)NCCOCCNC(=O)c2ccn(C)c(=O)c2O)c(O)c1=O
GI50 (TK-10): > 100000 nM (inactive)
GI50 (CAKI-1): > 100000 nM (inactive)
GI50 (UACC-62): > 100000 nM (inactive)
GI50 (HCT-15): > 100000 nM
GI50 (HCC 2998): > 100000 nM (inactive)
GI50 (SK-MEL-5): > 100000 nM (inactive)
GI50 (OVCAR-8): > 100000 nM (inactive)
GI50 (NCI-H23): > 100000 nM (inactive)
GI50 (SK-MEL-2): > 100000 nM (inactive)
GI50 (SN12C): > 100000 nM (inactive)
GI50 (A498): > 100000 nM (inactive)
GI50 (U-251): > 100000 nM (inactive)
GI50 (T47D): > 100000 nM (inactive)
GI50 (HCT-116): > 100000 nM (inactive)
GI50 (NCI-H226): > 100000 nM (inactive)
GI50 (PC-3): > 100000 nM (inactive)
GI50 (KM12): 18200 nM (inactive)
GI50 (MDA-MB-231): > 100000 nM (inactive)
GI50 (SW-620): > 100000 nM (inactive)
GI50 (RPMI-8226): > 100000 nM (inactive)
GI50 (NCI/ADR-RES): > 100000 nM (inactive)
GI50 (OVCAR-4): > 100000 nM (inactive)
GI50 (Hs-578T): > 100000 nM (inactive)
GI50 (SNB-19): > 100000 nM (inactive)
GI50 (SF-268): > 100000 nM (inactive)
GI50 (MDA-MB-435): > 100000 nM (inactive)
GI50 (COLO 205): > 100000 nM (inactive)
GI50 (NCI-H522): > 100000 nM (inactive)
GI50 (LOX IMVI): > 100000 nM (inactive)
GI50 (UACC-257): > 100000 nM (inactive)
GI50 (786-0): > 100000 nM (inactive)
GI50 (BT-549): > 100000 nM (inactive)
GI50 (MDA-N): > 100000 nM (inactive)
GI50 (HT-29): > 100000 nM (inactive)
GI50 (Malme-3M): > 100000 nM (inactive)
GI50 (A549): > 100000 nM (inactive)
GI50 (HOP-92): > 100000 nM (inactive)
GI50 (SK-MEL-28): > 100000 nM (inactive)
GI50 (UO-31): > 100000 nM (inactive)
GI50 (ACHN): > 100000 nM (inactive)
GI50 (NCI-H460): > 100000 nM (inactive)
GI50 (DU-145): > 100000 nM (inactive)
